US8093248B2, “Compounds useful for the treatment of conditions associated with weight gain” (AstraZeneca AB (PUBL), priority 2007, dated 2012)

Columns and labels:
JEG-3 cells [1] = conditions: Biol. Reprod. (2007) 76: 203-10; cited from earlier work
JEG-3 cells [2] = assay: [3H]-thymidine incorporation in JEG-3 cells (JEG-3 protocol); format: cell-based; conditions: JEG-3 choriocarcinoma cell line, FIG. 6
Method: In JEG-3 cells (choriocarcinoma cell line) leptin is able to stimulate proliferation up to 3 fold (Biol. Reprod. (2007) 76: 203-10). […] The radioactivity incorporated by the cells is an index of their proliferative activity and is measured in counts per minute (CPM) with a liquid scintillation beta counter.
This finding can be applied to test whether a compound is able to either reproduce the effect of leptin on cell proliferation (leptin receptor agonist mimetic) (i.e., a given compound will cause an increase in incorporated [^3H]-Thymidine by the cells) or to inhibit the effect of leptin (antagonistic effect) by preventing the leptin-mediated increase in [^3H]-thymidine incorporation.

Substance: leptin: hormone synthesized in fat cells that is believed to act in the hypothalamus to reduce food intake and body weight
- stimulation of proliferation (JEG-3 cells [1]): up to 3 fold
- concentration of maximal effect on [3H]-thymidine incorporation (JEG-3 cells [2]): 100 nM
- EC50 (JEG-3 cells [2]; read-out: EC50 of concentration-dependent increase in [3H]-thymidine incorporation): 2.1 nM
